In patent US20100278858A1, “PROCESS FOR PREPARING […] STRAINS” (priority 2007, published 2010):
Converted amounts (≈) assume the structure as drawn.

Key:
Test in all cases: method of reducing viral plates (plaque reduction)
[1] = test system: HSV-1 TK^− B2006; type: cell-based; conditions: for IC50: Human alphaherpesvirus 1; for Relative resistance (RR): IC50 of HSV-1 TK^− B2006 / IC50 of HSV-1 (F)
Protocol: (§1) According to the present invention, a method of reducing the viral plates comprises the following process: Vero cells monolayers developed in 24 wells microplates are infected with 50 UFP/well of virus in the absence or presence of different compounds concentrations. Each dilution is tested by duplicate. After 1 hour adsorption at 37° C., the inoculum is removed and covered by plating medium (culture media with methylcellulose at a final concentration of 0.7%). Inoculation is continued till the viral plates' appearance, which are then counted after fitting and dying the cells with violet crystal. Moreover, according to the present invention, 50% inhibitory concentration (IC50) means the compound concentration required for reducing about 50% the number of viral plates.
(§2) Thus, preliminary tests of the cloned variants of passages with greater selection pressure of 1C3 (17, 20 and 21) with pyrimidine and purine analogous as aciclovir (ACV) and brivudin (BVDU) would disclose alterations at viral TK level as it is shown in Table VIII, a characteristic that, up to date, has not been published in previous art documents. The TK gene is not essential for the in vitro viral replication, though in vivo, is involved in the virulence, pathogenicity and reactivation since latency (Andrei G et al., 2005). […] Therefore, the selection pressure to which the viruses were subjected could have selected mutations in the TK gene and in additional superimposing genes generating strains with less in vivo pathogenic action (Jacobson J et al., 1993).

[2] = test system: 1C3-syn-14-1; type: cell-based, HSV-1; conditions: for IC50: Human alphaherpesvirus 1, strain 1C3 syn 14-1, read-out: IC50; for IC50 / Relative resistance (RR): Table VIII; for Relative resistance (RR): IC50 of clone 1C3 syn 14-1 / IC50 of HSV-1 (F)
Protocol: as §1
(§3) Compounds were present during the viral adsorption (1h, 37° C.) and after the infection. When a cytopathic action (ACP) between 80-90%, during a period among 24 to 72 hours p.i., was observed, cells were lysed with freeze-thawing cycles. In order to remove cellular moieties, the cellular lisate was centrifuged during 10 min at 1000 rpm, keeping the supernatant at −70° C. The supernatant was used to infect a new monolayer in the presence of SAMMA or PRO2000. […] The title and the IC50 of each viral passage was determined by viral plates reduction test (or after 2-3 passages) against SAMMA or PRO20000.

[3] = test system: 1C3 syn 20-2; type: cell-based, HSV-1; conditions: for IC50: Human alphaherpesvirus 1; for Relative resistance (RR): IC50 of clone 1C3 syn 20-2 / IC50 of HSV-1 (F)
Protocol: as §1, §2

[4] = test system: 1C3 syn 21-2; type: cell-based, HSV-1; conditions: for IC50: Human alphaherpesvirus 1, strain 1C3 syn 21-2, read-out: IC50; for Relative resistance (RR): IC50 of clone 1C3 syn 21-2 / IC50 of HSV-1 (F)
Protocol: as §1, §2

[5] = test system: 1C3 syn 17-1; type: cell-based, HSV-1; conditions: for IC50: Human alphaherpesvirus 1, strain 1C3 syn 17-1, read-out: IC50; for Relative resistance (RR): IC50 of clone 1C3 syn 17-1 / IC50 of HSV-1 (F)
Protocol: as §1, §2

[6] = test system: 1C3 syn 21-3; type: cell-based, HSV-1; conditions: for IC50: Human alphaherpesvirus 1, strain 1C3 syn 21-3, read-out: IC50; for Relative resistance (RR): IC50 of clone 1C3 syn 21-3 / IC50 of HSV-1 (F)
Protocol: as §1, §2

[7] = test system: 1C3 syn 17-2; type: cell-based, HSV-1; conditions: for IC50: Human alphaherpesvirus 1, strain 1C3 syn 17-2, read-out: IC50; for Relative resistance (RR): IC50 of clone 1C3 syn 17-2 / IC50 of HSV-1 (F)
Protocol: as §1, §2

[8] = test system: 1C3 syn 17-3; type: cell-based, HSV-1; conditions: for IC50: Human alphaherpesvirus 1, strain 1C3 syn 17-3, read-out: IC50; for Relative resistance (RR): IC50 of clone 1C3 syn 17-3 / IC50 of HSV-1 (F)
Protocol: as §1, §2

[9] = test system: 1C3 syn 20-3; type: cell-based, HSV-1; conditions: for IC50: Human alphaherpesvirus 1, strain 1C3 syn 20-3, read-out: IC50; for Relative resistance (RR): IC50 of clone 1C3 syn 20-3 / IC50 of HSV-1 (F)
Protocol: as §1, §2

[10] = test system: 1C3 syn 21-1; type: cell-based, HSV-1; conditions: for IC50: Human alphaherpesvirus 1, strain 1C3 syn 21-1, read-out: IC50; for Relative resistance (RR): IC50 of clone 1C3 syn 21-1 / IC50 of HSV-1 (F)
Protocol: as §1, §2

[11] = test system: 1C3 syn 20-1; type: cell-based, HSV-1; conditions: for IC50: Human alphaherpesvirus 1, strain 1C3 syn 20-1, read-out: IC50; for Relative resistance (RR): IC50 of clone 1C3 syn 20-1 / IC50 of HSV-1 (F)
Protocol: as §1, §2

[12] = test system: HSV-1 (F); type: cell-based; conditions: Human alphaherpesvirus 1; Table VIII; strain HSV-1 (F); read-out: IC50
Protocol: as §1, §3

Row | SMILES | IC50 [1] [µg/mL] | Relative resistance (RR) [1] | IC50 [2] [µg/mL] | Relative resistance (RR) [2] | IC50 [3] [µg/mL] | Relative resistance (RR) [3] | IC50 [4] [µg/mL] | Relative resistance (RR) [4] | IC50 [5] [µg/mL] | Relative resistance (RR) [5] | IC50 [6] [µg/mL] | Relative resistance (RR) [6] | IC50 [7] [µg/mL] | Relative resistance (RR) [7] | IC50 [8] [µg/mL] | Relative resistance (RR) [8] | IC50 [9] [µg/mL] | Relative resistance (RR) [9] | IC50 [10] [µg/mL] | Relative resistance (RR) [10] | other results
1 | O=C(O)P(=O)(O)O [Foscarnet, foscarnet] | 35.1 (≈ 279 µM) | 5.0 | 3.12 (≈ 24.8 µM) | < 1.0 | 12.5 (≈ 99.2 µM) | 2.0 | 17.6 (≈ 140 µM) | 2.9 | 17.6 (≈ 140 µM) | 2.9 | 12.5 (≈ 99.2 µM) | 2.0 | 12.5 (≈ 99.2 µM) | 2.0 | 17.6 (≈ 140 µM) | 2.9 | 17.6 (≈ 140 µM) | 2.9 | 8.82 (≈ 70 µM) | 1.4 | IC50 [11]: 12.5 µg/mL (≈ 99.2 µM); Relative resistance (RR) [11]: 2.0; IC50 [12]: 6.12 µg/mL (≈ 48.6 µM)
2 | O=c1[nH]c(=O)n([C@H]2C[C@H](O)[C@@H](CO)O2)cc1/C=C/Br [Brivudin, brivudin] | > 0.16 | 16.0 | 0.02 (≈ 0.06 µM) | 2.0 | 0.05 (≈ 0.15 µM) | 5.6 | 0.06 (≈ 0.18 µM) | 6.0 | 0.08 (≈ 0.24 µM) | 8.0 | 0.06 (≈ 0.18 µM) | 6.0 | 0.13 (≈ 0.39 µM) | 13.0 | 0.08 (≈ 0.24 µM) | 8.0 | 0.06 (≈ 0.18 µM) | 6.0 | 0.04 (≈ 0.12 µM) | 4.0 | susceptibility of variant to drug (in words) ([2]; variant 1C3-syn-14-1): rare resistance; IC50 [11]: 0.08 µg/mL (≈ 0.24 µM); Relative resistance (RR) [11]: 8.0; IC50 [12]: 0.01 µg/mL (≈ 0.03 µM)
